Values of other authors in patent publication US20090156647A1, “Method for maintaining physiological pH levels during intensive physical exercise” (IOVATE T. & P. INC., priority 2007, published 2009).

Details: about 1.5 g of HICA daily after intense exercise for 42 days

CC(C)CC(O)C(=O)O (centres unmarked) [HICA, 2-hydroxy-4-methylvaleric acid]
delayed onset muscular soreness (DOMS) experienced by subjects: little to no DOMS | total lean soft tissue mass: statistically significant increase
